Where two headings read alike, the source gives them in different places.
Tests used:
[1] = tested on: K562 (Leukemia) cells; experiment: Cell cycle distribution by flow cytometry; format: cell-based
Outline: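 Compound-treated K562 cells analysed for cell-cycle distribution by flow cytometry; values given as % of cells.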

[2] = tested on: OVCAR-8; experiment: SRB anticancer assay, ovarian; format: cell-based, human; conditions: Homo sapiens, OVCAR-8, 48 h
[3] = tested on: MCF-7 (Breast carcinoma) cells; experiment: Cell cycle distribution by flow cytometry (FACS); format: cell-based; conditions: MCF-7 cells, 2 μM, 24h
Outline: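 MCF-7 cells treated with compound at 2 μM for 24h, DMSO (0.25%) as control. Cell cycle distribution read by flow cytometry.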

[4] = tested on: MCF7; experiment: SRB anticancer assay, breast; format: cell-based, human; conditions: Homo sapiens, MCF7, 48 h
[5] = tested on: SNB-75; experiment: SRB anticancer assay, CNS; format: cell-based, human; conditions: Homo sapiens, SNB-75, 48 h
[6] = tested on: Melanoma cancer cell lines; experiment: SRB anticancer assay, panel result; format: cell-based, human
Experimental: (§1) The compounds were evaluated for anticancer activity against sixty human cancer cells derived from nine cancer types (leukemia cell line, non-small-cell lung cell line, colon cell line, CNS cell line, melanoma cell line, ovarian cell line, prostate cell line, renal cancer cell line and breast cancer cell line) as shown in Table 1. For each compound, dose response curves for each cell line were measured at a minimum of five concentrations at 10 fold dilutions. A protocol of 48 h continuous drug exposure was used and a sulforhodamine B (SRB) protein assay was used to estimate cell viability or growth.

[7] = tested on: Ovarian cancer cell lines; experiment: SRB anticancer assay, panel result; format: cell-based, human
Experimental: as §1

[8] = tested on: Renal cancer cell lines; experiment: SRB anticancer assay, panel result; format: cell-based, human
Experimental: as §1

[9] = tested on: Non-small cell lung cancer cell lines; experiment: SRB anticancer assay, panel result; format: cell-based, human
Experimental: as §1

[10] = tested on: Breast cancer cell lines; experiment: SRB anticancer assay, panel result; format: cell-based, human
Experimental: as §1

[11] = tested on: CNS cancer cell lines; experiment: SRB anticancer assay, panel result; format: cell-based, human
Experimental: as §1

[12] = tested on: Colon cancer cell lines; experiment: SRB anticancer assay, panel result; format: cell-based, human
Experimental: as §1

[13] = tested on: Prostate cancer cell lines; experiment: SRB anticancer assay, panel result; format: cell-based, human
Experimental: as §1

[14] = tested on: Leukemia cancer cell lines; experiment: SRB anticancer assay, panel result; format: cell-based, human
Experimental: as §1

[15] = tested on: SN12C; experiment: SRB anticancer assay, renal; format: cell-based, human; conditions: Homo sapiens, 48 h
[16] = tested on: HCT-116; experiment: SRB anticancer assay, colon; format: cell-based, human; conditions: Homo sapiens, HCT-116, 48 h
[17] = tested on: NCI/ADR-RES; experiment: SRB anticancer assay, ovarian; format: cell-based, human; conditions: Homo sapiens, NCI/ADR-RES, 48 h
[18] = tested on: RXF 393; experiment: SRB anticancer assay, renal; format: cell-based, human; conditions: Homo sapiens, RXF 393, 48 h
[19] = tested on: SK-MEL-2; experiment: SRB anticancer assay, melanoma; format: cell-based, human; conditions: Homo sapiens, SK-MEL-2, 48 h
[20] = tested on: M14; experiment: SRB anticancer assay, melanoma; format: cell-based, human; conditions: Homo sapiens, M14, 48 h
[21] = tested on: OVCAR-4; experiment: SRB anticancer assay, ovarian; format: cell-based, human; conditions: Homo sapiens, OVCAR-4, 48 h
[22] = tested on: SNB-19; experiment: SRB anticancer assay, CNS; format: cell-based, human; conditions: Homo sapiens, SNB-19, 48 h

COc1cc(OC)c2sc(-c3ccc(-n4cncc4-c4cc(OC)c(OC)c(OC)c4)cc3)nc2c1 [Compound 6f, 5,7-Dimethoxy-2-(4-(5-(3,4,5-trimethoxyphenyl)-1H-imidazol-1-yl)phenyl)benzo[d]thiazole]
cells in G2/M phase [1]: 14%
GI50 [2]: > 100 µM
cells in G2/M phase [3]: 21%
GI50 [4]: 3.88 µM
GI50 [5]: 6.47 µM
LC50 ([6]; Homo sapiens, Melanoma panel, 50% net cell death, read-out: mean graph midpoint value (MG_MID) of Log10 LC50 (converted)): > 100 µM
GI50 ([6]; Homo sapiens, Melanoma panel, read-out: mean graph midpoint value (MG_MID) of Log10 GI50 (converted)): 6.61 µM
GI50 ([6]; Homo sapiens, nine melanoma cancer cell lines, exposure at least 48 h, read-out: GI50, range over the panel): 2.46 to 7.91 µM
mean graph midpoint value (MG_MID) of log10 TGI ([6]; Melanoma panel, total inhibition of net cell growth): >−4.0
LC50 ([7]; Homo sapiens, Ovarian panel, 50% net cell death, read-out: mean graph midpoint value (MG_MID) of Log10 LC50 (converted)): > 100 µM
GI50 ([7]; Homo sapiens, Ovarian panel, read-out: mean graph midpoint value (MG_MID) of Log10 GI50 (converted)): 16.6 µM
GI50 ([7]; Homo sapiens, seven ovarian cancer cell lines, exposure at least 48 h, read-out: GI50, range over the panel): 3.25 to 5.87 µM
mean graph midpoint value (MG_MID) of log10 TGI ([7]; Ovarian panel, total inhibition of net cell growth): >−4.0
CC50 ([8]; Homo sapiens, Renal panel, 50% net cell death, read-out: mean graph midpoint value (MG_MID) of Log10 LC50 (converted)): > 100 µM
GI50 ([8]; Homo sapiens, Renal panel, read-out: mean graph midpoint value (MG_MID) of Log10 GI50 (converted)): 6.61 µM
GI50 ([8]; Homo sapiens, eight renal cancer cell lines, exposure at least 48 h, read-out: GI50, range over the panel): 1.83 to 9.4 µM
mean graph midpoint value (MG_MID) of log10 TGI ([8]; Renal panel, total inhibition of net cell growth): >−4.0
LC50 ([9]; Homo sapiens, Non-small cell lung panel, 50% net cell death, read-out: mean graph midpoint value (MG_MID) of Log10 LC50 (converted)): > 100 µM
GI50 ([9]; Homo sapiens, Non-small cell lung panel, read-out: mean graph midpoint value (MG_MID) of Log10 GI50 (converted)): 11.2 µM
GI50 ([9]; Homo sapiens, nine Non-small cell lung cancer cell lines, exposure at least 48 h, read-out: GI50, range over the panel): 3.27 to 75.9 µM
mean graph midpoint value (MG_MID) of log10 TGI ([9]; Non-small cell lung panel, total inhibition of net cell growth): >−4.0
mean graph midpoint value (MG_MID) of log10 TGI ([10]; Breast panel, total inhibition of net cell growth): >−4.0
CC50 ([10]; Homo sapiens, Breast panel, 50% net cell death, read-out: mean graph midpoint value (MG_MID) of Log10 LC50 (converted)): > 100 µM
GI50 ([10]; Homo sapiens, Breast panel, read-out: mean graph midpoint value (MG_MID) of Log10 GI50 (converted)): 3.8 µM
GI50 ([10]; Homo sapiens, six breast cancer cell lines, exposure at least 48 h, read-out: GI50, range over the panel): 3.27 to 5.23 µM
mean graph midpoint value (MG_MID) of log10 TGI ([11]; CNS panel, total inhibition of net cell growth): >−4.0
CC50 ([11]; Homo sapiens, CNS panel, 50% net cell death, read-out: mean graph midpoint value (MG_MID) of Log10 LC50 (converted)): > 100 µM
GI50 ([11]; Homo sapiens, CNS panel, read-out: mean graph midpoint value (MG_MID) of Log10 GI50 (converted)): 15.8 µM
GI50 ([11]; Homo sapiens, six CNS cancer cell lines, exposure at least 48 h, read-out: GI50, range over the panel): 4.15 to 8.59 µM
mean graph midpoint value (MG_MID) of log10 TGI ([12]; Colon panel, total inhibition of net cell growth): >−4.0
LC50 ([12]; Homo sapiens, Colon panel, 50% net cell death, read-out: mean graph midpoint value (MG_MID) of Log10 LC50 (converted)): > 100 µM
GI50 ([12]; Homo sapiens, Colon panel, read-out: mean graph midpoint value (MG_MID) of Log10 GI50 (converted)): 7.41 µM
GI50 ([12]; Homo sapiens, seven colon cancer cell lines, exposure at least 48 h, read-out: GI50, range over the panel): 3.92 to 5.96 µM
LC50 ([13]; Homo sapiens, Prostate panel, 50% net cell death, read-out: mean graph midpoint value (MG_MID) of Log10 LC50 (converted)): > 100 µM
GI50 ([13]; Homo sapiens, Prostate panel, read-out: mean graph midpoint value (MG_MID) of Log10 GI50 (converted)): 16.2 µM
GI50 ([13]; Homo sapiens, two prostate cancer cell lines (PC-3, DU-145), exposure at least 48 h, read-out: GI50, range over the panel): 2.54 µM
mean graph midpoint value (MG_MID) of log10 TGI ([13]; Prostate panel, total inhibition of net cell growth): >−4.0
LC50 ([14]; Homo sapiens, Leukemia panel, 50% net cell death, read-out: mean graph midpoint value (MG_MID) of Log10 LC50 (converted)): > 100 µM
GI50 ([14]; Homo sapiens, Leukemia panel, read-out: mean graph midpoint value (MG_MID) of Log10 GI50 (converted)): 3.89 µM
GI50 ([14]; Homo sapiens, six leukemia cancer cell lines, exposure at least 48 h, read-out: GI50, range over the panel): 3.24 to 5.39 µM
mean graph midpoint value (MG_MID) of log10 TGI ([14]; Leukemia panel, total inhibition of net cell growth): >−4.0
GI50 [15]: > 100 µM
GI50 [16]: 3.92 µM
GI50 [17]: 5.65 µM
GI50 [18]: 2.8 µM
GI50 [19]: 6.09 µM
GI50 [20]: 7.91 µM
GI50 [21]: 3.25 µM
GI50 [22]: > 100 µM

From patent US9187467B2, “2-phenyl benzothiazole linked imidazole compounds as potential anticancer agents and process for the preparation thereof” (Council of Scientific and Industrial Research, priority 2012, dated 2015)
